Measurements from US7989649B2, “Tumor imaging compounds” (Emory University, priority 2002, dated 2011).

Key:
9 L gliosarcoma cells = assay: Amino acid uptake inhibition assay in 9 L gliosarcoma cells; type: cell-based, rat
Experimental: Amino acid uptake inhibition assays. The 9 L gliosarcoma cells were initially grown as monolayers in T-flasks containing Dulbecco's Modified Eagle's Medium (DMEM) under humidified incubator conditions (37° C., 5% CO2/95% air). The growth media was supplemented with 10% fetal calf serum and antibiotics (10,000 units/ml penicillin and 10 mg/ml streptomycin). The growth media was replaced three times per week, and the cells were passaged so the cells would reach confluency in a week's time.
When the monolayers were confluent, cells were prepared for experimentation in the following manner. Growth media was removed from the T-flask, and the monolayer cells were exposed to 1× trypsin:EDTA for ˜1 minute to weaken the protein attachments between the cells and the flask. The flask was then slapped, causing the cells to release. Supplemented media was added to inhibit the proteolytic action of the trypsin, and the cells were aspirated through an 18 Ga needle until they were monodisperse. A sample of the cells was counted under a microscope using a hemocytometer, and the live/dead fraction estimated through trypan blue staining (>98% viability). The remainder of the cells was placed into a centrifuge tube, centrifuged at 75 G for 5 minutes, and the supernatant was removed. The cells were then resuspended in amino-acid/serum-free DMEM salts.
In this study, approximately 4.55×10^5 cells were exposed to either [^18F]5a or [^18F]5b (5 μCi) in 3 ml of amino acid free media±transporter inhibitors (10 mM) for 30 minutes under incubator conditions in 12×75 mm glass vials. Each assay condition was performed in duplicate. After incubation, cells were twice centrifuged (75 G for 5 minutes) and rinsed with ice-cold amino-acid/serum-free DMEM salts to remove residual activity in the supernatant. The vials were placed in a Packard Cobra II Auto-Gamma counter, the raw counts decay corrected, and the activity per cell number determined. The data from these studies (expressed as percent uptake relative to control) were graphed using Excel, with statistical comparisons between the groups analyzed using a 1-way ANOVA (GraphPad Prism software package).

9 L gliosarcoma tumor = assay: Biodistribution in Fischer rats with intracranial 9 L gliosarcoma tumor; type: in vivo; settings: for Tissue distribution of radioactivity, Blood / Tissue distribution of radioactivity, Bone / Tissue distribution of radioactivity, Heart / Tissue distribution of radioactivity, Kidney / Tissue distribution of radioactivity, Liver / Tissue distribution of radioactivity, Lung / Tissue distribution of radioactivity, Muscle / Tissue distribution of radioactivity, Pancreas / Tissue distribution of radioactivity, Spleen / Tissue distribution of radioactivity, Testis / Tissue distribution of radioactivity, Tumor / Tissue distribution of radioactivity, Brain: tumor-bearing Fischer rats; for Tissue distribution of radioactivity, Brain: normal brain contralateral to tumor
Experimental: Tumor induction and animal preparation. All animal experiments were carried out under humane conditions and were approved by the Institutional Animal Use and Care Committee (IUCAC) at Emory University. Rat 9 L gliosarcoma cells were implanted into the brains of male Fischer rats as described previously [Shoup, T M et al. (1999), J. Nucl. Med. 40:331-338]. Briefly, anesthetized rats placed in a stereotactic head holder were injected with a suspension of 4×10^4 rat 9 L gliosarcoma cells (1×10^7 per mL) in a location 3 mm right of midline and 1 mm anterior to the bregma at a depth of 5 mm deep to the outer table. The injection was performed over the course of 2 minutes, and the needle was withdrawn over the course of 1 minute to minimize the backflow of tumor cells. The burr hole and scalp incision were closed, and the animals were returned to their original colony after recovering from the procedure. Intracranial tumors developed that produced weight loss, apathy and hunched posture in the tumor-bearing rats, and the animals were used at 17-19 days after implantation. Of the 30 animals implanted with tumor cells, 25 developed tumors visible to the naked eye upon dissection and were used in the study.
The tissue distribution of radioactivity was also determined in tumor-bearing Fischer 344 rats following intravenous injection of ˜35 μCi of [^18F]5a or [^18F]5b in 0.3 mL of sterile water. The procedure was similar to that already described for normal rats with the following modifications. The tail vein injections were performed in awake animals using a RTV-190 rodent restraint device (Braintree Scientific) to avoid mortality accompanying anesthesia in the presence of an intracranial mass. The animals were killed at 5 minutes, 60 minutes or 120 minutes post-injection. The same tissues were assayed as in normal rats with the addition of the tumor tissue, and the corresponding region of brain contralateral to the tumor was excised and used for comparison. The uptake in the tumor and contralateral brain at each time point was compared via a two-tailed t-test for paired observations (GraphPad Prism software package).

[1] = 60 min after injection, listed as [^18F]FAMP (5a)
[2] = 120 min after injection, listed as [^18F]FAMP (5a)

Compound: CC(N)(CF)C(=O)O (racemic) [[^18F]5a, 2-amino-3-fluoro-2-methylpropanoic acid]
- uptake of activity blocked by BCH relative to controls (9 L gliosarcoma cells; BCH 10 mM, 30 minutes, 9 L gliosarcoma cells): 48%
- uptake of activity blocked by N-MeAIB relative to controls (9 L gliosarcoma cells; N-MeAIB 10 mM, 30 minutes, 9 L gliosarcoma cells): 80%
- intracellular accumulation in 9 L gliosarcoma cells (9 L gliosarcoma cells; absence of inhibitors, 30 minutes of incubation): 0.43 % of the initial dose per million cells
- substrate for non-A transport system (9 L gliosarcoma cells; based on inhibition of uptake by BCH): substrate in vitro for at least one non-A transport system, possibly system L
- substrate for A-type amino acid transport system (9 L gliosarcoma cells; based on inhibition of uptake by N-MeAIB): substrates for the A-type amino acid transport system
- Tissue distribution of radioactivity, Blood (9 L gliosarcoma tumor; 5 min after injection): 0.72 ± 0.05 percent dose per gram
- Tissue distribution of radioactivity, Bone (9 L gliosarcoma tumor; 5 min after injection): 0.38 ± 0.04 percent dose per gram
- Tissue distribution of radioactivity, Heart (9 L gliosarcoma tumor; 5 min after injection): 0.40 ± 0.04 percent dose per gram
- Tissue distribution of radioactivity, Kidney (9 L gliosarcoma tumor; 5 min after injection): 8.66 ± 1.27 percent dose per gram
- Tissue distribution of radioactivity, Liver (9 L gliosarcoma tumor; 5 min after injection): 0.77 ± 0.22 percent dose per gram
- Tissue distribution of radioactivity, Lung (9 L gliosarcoma tumor; 5 min after injection): 0.84 ± 0.03 percent dose per gram
- Tissue distribution of radioactivity, Muscle (9 L gliosarcoma tumor; 5 min after injection): 0.39 ± 0.02 percent dose per gram
- Tissue distribution of radioactivity, Pancreas (9 L gliosarcoma tumor; 5 min after injection): 5.31 ± 0.68 percent dose per gram
- Tissue distribution of radioactivity, Spleen (9 L gliosarcoma tumor; 5 min after injection): 0.72 ± 0.06 percent dose per gram
- Tissue distribution of radioactivity, Testis (9 L gliosarcoma tumor; 5 min after injection): 0.22 ± 0.02 percent dose per gram
- Tissue distribution of radioactivity, Tumor (9 L gliosarcoma tumor; 5 min after injection): 0.91 percent dose per gram
- Tissue distribution of radioactivity, Tumor (9 L gliosarcoma tumor; 5 min after injection, listed as [^18F]FAMP (5a)): 0.91 ± 0.05 percent dose per gram
- Tissue distribution of radioactivity, Blood (9 L gliosarcoma tumor; 60 min after injection): 0.26 ± 0.03 percent dose per gram
- Tissue distribution of radioactivity, Bone (9 L gliosarcoma tumor; 60 min after injection): 0.25 ± 0.05 percent dose per gram
- Tissue distribution of radioactivity, Heart (9 L gliosarcoma tumor; 60 min after injection): 0.33 ± 0.06 percent dose per gram
- Tissue distribution of radioactivity, Kidney (9 L gliosarcoma tumor; 60 min after injection): 6.20 ± 1.45 percent dose per gram
- Tissue distribution of radioactivity, Liver (9 L gliosarcoma tumor; 60 min after injection): 0.66 ± 0.16 percent dose per gram
- Tissue distribution of radioactivity, Lung (9 L gliosarcoma tumor; 60 min after injection): 0.38 ± 0.04 percent dose per gram
- Tissue distribution of radioactivity, Muscle (9 L gliosarcoma tumor; 60 min after injection): 0.31 ± 0.03 percent dose per gram
- Tissue distribution of radioactivity, Pancreas (9 L gliosarcoma tumor; 60 min after injection): 2.86 ± 0.34 percent dose per gram
- Tissue distribution of radioactivity, Spleen (9 L gliosarcoma tumor; 60 min after injection): 0.55 ± 0.08 percent dose per gram
- Tissue distribution of radioactivity, Testis (9 L gliosarcoma tumor; 60 min after injection): 0.14 ± 0.02 percent dose per gram
- Tissue distribution of radioactivity, Tumor (9 L gliosarcoma tumor; 60 min after injection): 1.96 percent dose per gram
- Tissue distribution of radioactivity, Tumor (9 L gliosarcoma tumor; [1]): 1.96 ± 0.10 percent dose per gram
- Tissue distribution of radioactivity, Blood (9 L gliosarcoma tumor; 120 min after injection): 0.16 ± 0.01 percent dose per gram
- Tissue distribution of radioactivity, Bone (9 L gliosarcoma tumor; 120 min after injection): 0.16 ± 0.01 percent dose per gram
- Tissue distribution of radioactivity, Heart (9 L gliosarcoma tumor; 120 min after injection): 0.22 ± 0.02 percent dose per gram
- Tissue distribution of radioactivity, Kidney (9 L gliosarcoma tumor; 120 min after injection): 3.64 ± 0.26 percent dose per gram
- Tissue distribution of radioactivity, Liver (9 L gliosarcoma tumor; 120 min after injection): 0.25 ± 0.02 percent dose per gram
- Tissue distribution of radioactivity, Lung (9 L gliosarcoma tumor; 120 min after injection): 0.24 ± 0.03 percent dose per gram
- Tissue distribution of radioactivity, Muscle (9 L gliosarcoma tumor; 120 min after injection): 0.21 ± 0.01 percent dose per gram
- Tissue distribution of radioactivity, Pancreas (9 L gliosarcoma tumor; 120 min after injection): 1.42 ± 0.17 percent dose per gram
- Tissue distribution of radioactivity, Spleen (9 L gliosarcoma tumor; 120 min after injection): 0.32 ± 0.02 percent dose per gram
- Tissue distribution of radioactivity, Testis (9 L gliosarcoma tumor; 120 min after injection): 0.11 ± 0.003 percent dose per gram
- Tissue distribution of radioactivity, Tumor (9 L gliosarcoma tumor; 120 min after injection): 1.87 percent dose per gram
- Tissue distribution of radioactivity, Tumor (9 L gliosarcoma tumor; [2]): 1.87 ± 0.2 percent dose per gram
- Tissue distribution of radioactivity, Brain (9 L gliosarcoma tumor; 5 min after injection): 0.035 ± 0.002 percent dose per gram
- Tissue distribution of radioactivity, Brain (9 L gliosarcoma tumor; 60 min after injection): 0.054 percent dose per gram
- Tissue distribution of radioactivity, Brain (9 L gliosarcoma tumor; [1]): 0.054 ± 0.01 percent dose per gram
- Tissue distribution of radioactivity, Brain (9 L gliosarcoma tumor; 120 min after injection): 0.050 percent dose per gram
- Tissue distribution of radioactivity, Brain (9 L gliosarcoma tumor; [2]): 0.050 ± 0.004 percent dose per gram
- uptake in normal brain tissue contralateral to the tumor (9 L gliosarcoma tumor; tumor-bearing rats, each time point (5, 60, 120 minutes)): approximately 0.05 % ID/g
